{"source": "paper PMC5392334", "about": "“Discovery and characterization of a novel irreversible EGFR mutants selective and potent kinase inhibitor CHMFL-EGFR-26 with a distinct binding mode” (Oncotarget, 2017)", "test_in_all_cases": "KinomeScan", "assay_type_in_all_cases": "binding", "key": {"[1]": {"biological_target": "T1, ABL1(F317L)-phosphorylated (Homo sapiens, UniProt P00519, F317L)", "T1 construct": "purchased DiscoveRx KINOMEscan", "conditions": "read-out: % control"}, "[2]": {"biological_target": "T2, ABL1(H396P)-phosphorylated (Homo sapiens, UniProt P00519, H396P)", "T2 construct": "purchased DiscoveRx KINOMEscan", "conditions": "read-out: % control"}, "[3]": {"biological_target": "T3, ABL1(M351T)-phosphorylated (Homo sapiens, UniProt P00519, M351T)", "T3 construct": "purchased DiscoveRx KINOMEscan", "conditions": "read-out: % control"}, "BMX": {"biological_target": "T4, BMX (Homo sapiens, UniProt P51813)", "T4 construct": "purchased Invitrogen (SelectScreen service)", "conditions": "read-out: % control"}, "CDK8": {"biological_target": "T5, CDK8 (Homo sapiens, UniProt P49336)", "T5 construct": "purchased DiscoveRx KINOMEscan", "conditions": "read-out: % control"}, "CDKL1": {"biological_target": "T6, CDKL1 (Homo sapiens, UniProt Q00532)", "T6 construct": "purchased DiscoveRx KINOMEscan", "conditions": "read-out: % control"}, "CSNK1A1L": {"biological_target": "T7, CSNK1A1L (Homo sapiens, UniProt Q8N752)", "T7 construct": "purchased DiscoveRx KINOMEscan", "conditions": "read-out: % control"}, "DCAMKL2": {"biological_target": "T8, DCAMKL2 (Homo sapiens, UniProt Q8N568)", "T8 construct": "purchased DiscoveRx KINOMEscan", "conditions": "read-out: % control"}, "DDR1": {"biological_target": "T9, DDR1 (Homo sapiens, UniProt Q08345)", "T9 construct": "purchased DiscoveRx KINOMEscan", "conditions": "read-out: % control"}, "EPHA5": {"biological_target": "T10, EPHA5 (Homo sapiens, UniProt P54756)", "T10 construct": "purchased DiscoveRx KINOMEscan", "T10 sequence (P54756 25-1037)": "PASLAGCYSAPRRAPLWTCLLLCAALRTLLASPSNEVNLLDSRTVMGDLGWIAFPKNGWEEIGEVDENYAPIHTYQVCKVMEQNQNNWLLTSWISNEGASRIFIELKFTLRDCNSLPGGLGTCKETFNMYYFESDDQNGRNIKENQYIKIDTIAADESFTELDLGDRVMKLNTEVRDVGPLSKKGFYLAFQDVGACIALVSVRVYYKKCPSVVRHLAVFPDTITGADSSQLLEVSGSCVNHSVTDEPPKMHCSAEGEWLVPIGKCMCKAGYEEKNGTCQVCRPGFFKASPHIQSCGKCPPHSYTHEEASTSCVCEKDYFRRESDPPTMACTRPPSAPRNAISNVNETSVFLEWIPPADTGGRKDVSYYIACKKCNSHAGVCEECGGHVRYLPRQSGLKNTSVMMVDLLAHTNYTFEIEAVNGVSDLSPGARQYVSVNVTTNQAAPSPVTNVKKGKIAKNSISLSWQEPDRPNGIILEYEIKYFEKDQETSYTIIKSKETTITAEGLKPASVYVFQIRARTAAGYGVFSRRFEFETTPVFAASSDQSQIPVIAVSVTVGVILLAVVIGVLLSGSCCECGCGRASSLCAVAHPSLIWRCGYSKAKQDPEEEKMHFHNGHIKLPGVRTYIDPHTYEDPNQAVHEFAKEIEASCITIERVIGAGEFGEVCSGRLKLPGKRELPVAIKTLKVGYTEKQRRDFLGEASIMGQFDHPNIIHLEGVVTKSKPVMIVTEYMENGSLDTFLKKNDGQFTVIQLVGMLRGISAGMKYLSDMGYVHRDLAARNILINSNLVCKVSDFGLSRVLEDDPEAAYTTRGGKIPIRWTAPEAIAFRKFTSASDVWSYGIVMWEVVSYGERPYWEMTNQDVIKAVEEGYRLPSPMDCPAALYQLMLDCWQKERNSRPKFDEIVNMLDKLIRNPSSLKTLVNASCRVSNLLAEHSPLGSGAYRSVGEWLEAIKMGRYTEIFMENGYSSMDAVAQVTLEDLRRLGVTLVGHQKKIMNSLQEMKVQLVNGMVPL", "conditions": "read-out: % control"}, "EPHB2": {"biological_target": "T11, EPHB2 (Homo sapiens, UniProt P29323)", "T11 construct": "purchased DiscoveRx KINOMEscan", "conditions": "read-out: % control"}, "FGFR2": {"biological_target": "T12, FGFR2 (Homo sapiens, UniProt P21802)", "T12 construct": "purchased DiscoveRx KINOMEscan", "T12 sequence (P21802 22-821)": "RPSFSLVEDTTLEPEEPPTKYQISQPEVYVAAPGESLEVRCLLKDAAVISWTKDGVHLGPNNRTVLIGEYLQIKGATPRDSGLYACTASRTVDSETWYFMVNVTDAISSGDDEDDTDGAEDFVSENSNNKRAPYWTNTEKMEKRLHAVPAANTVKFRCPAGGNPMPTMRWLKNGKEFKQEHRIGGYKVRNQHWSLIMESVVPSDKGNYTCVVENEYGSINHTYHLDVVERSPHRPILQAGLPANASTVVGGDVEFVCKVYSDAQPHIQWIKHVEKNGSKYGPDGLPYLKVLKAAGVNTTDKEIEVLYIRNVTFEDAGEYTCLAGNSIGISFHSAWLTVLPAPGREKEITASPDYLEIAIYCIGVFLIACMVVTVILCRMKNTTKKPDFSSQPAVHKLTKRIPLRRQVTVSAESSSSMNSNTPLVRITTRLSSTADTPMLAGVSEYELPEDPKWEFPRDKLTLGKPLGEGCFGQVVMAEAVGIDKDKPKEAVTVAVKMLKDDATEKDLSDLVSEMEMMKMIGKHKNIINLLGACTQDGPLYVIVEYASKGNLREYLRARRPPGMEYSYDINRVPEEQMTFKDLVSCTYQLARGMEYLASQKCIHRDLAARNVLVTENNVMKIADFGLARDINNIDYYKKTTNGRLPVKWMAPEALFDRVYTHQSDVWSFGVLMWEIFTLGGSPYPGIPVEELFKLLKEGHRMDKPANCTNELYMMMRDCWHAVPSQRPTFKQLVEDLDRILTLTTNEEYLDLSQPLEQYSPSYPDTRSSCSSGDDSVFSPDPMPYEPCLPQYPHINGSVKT", "conditions": "read-out: % control"}, "FLT3(D835V)": {"biological_target": "T13, FLT3(D835V) (Homo sapiens, UniProt P36888, D835V)", "T13 construct": "purchased DiscoveRx KINOMEscan", "conditions": "read-out: % control"}, "FLT3(ITD,F691L)": {"system": "FLT3(ITD,F691L)", "conditions": "1μM"}, "FLT3(K663Q)": {"biological_target": "T14, FLT3(K663Q) (Homo sapiens, UniProt P36888, K663Q)", "T14 construct": "purchased DiscoveRx KINOMEscan", "conditions": "read-out: % control"}, "FLT3(R834Q)": {"biological_target": "T15, FLT3(R834Q) (Homo sapiens, UniProt P36888, R834Q)", "T15 construct": "purchased DiscoveRx KINOMEscan", "conditions": "read-out: % control"}, "FLT4": {"biological_target": "T16, FLT4 (Homo sapiens, UniProt P35916)", "T16 construct": "purchased DiscoveRx KINOMEscan", "conditions": "read-out: % control"}, "IKK-alpha": {"biological_target": "T17, IKK-alpha (Homo sapiens, UniProt O15111)", "T17 construct": "purchased DiscoveRx KINOMEscan", "conditions": "read-out: % control"}, "IRAK1": {"biological_target": "T18, IRAK1 (Homo sapiens, UniProt P51617)", "T18 construct": "purchased DiscoveRx KINOMEscan", "conditions": "read-out: % control"}, "KIT(D816V)": {"biological_target": "T19, KIT(D816V) (Homo sapiens, UniProt P10721, D816V)", "T19 construct": "purchased DiscoveRx KINOMEscan", "T19 sequence (P10721 26-976 D816V)": "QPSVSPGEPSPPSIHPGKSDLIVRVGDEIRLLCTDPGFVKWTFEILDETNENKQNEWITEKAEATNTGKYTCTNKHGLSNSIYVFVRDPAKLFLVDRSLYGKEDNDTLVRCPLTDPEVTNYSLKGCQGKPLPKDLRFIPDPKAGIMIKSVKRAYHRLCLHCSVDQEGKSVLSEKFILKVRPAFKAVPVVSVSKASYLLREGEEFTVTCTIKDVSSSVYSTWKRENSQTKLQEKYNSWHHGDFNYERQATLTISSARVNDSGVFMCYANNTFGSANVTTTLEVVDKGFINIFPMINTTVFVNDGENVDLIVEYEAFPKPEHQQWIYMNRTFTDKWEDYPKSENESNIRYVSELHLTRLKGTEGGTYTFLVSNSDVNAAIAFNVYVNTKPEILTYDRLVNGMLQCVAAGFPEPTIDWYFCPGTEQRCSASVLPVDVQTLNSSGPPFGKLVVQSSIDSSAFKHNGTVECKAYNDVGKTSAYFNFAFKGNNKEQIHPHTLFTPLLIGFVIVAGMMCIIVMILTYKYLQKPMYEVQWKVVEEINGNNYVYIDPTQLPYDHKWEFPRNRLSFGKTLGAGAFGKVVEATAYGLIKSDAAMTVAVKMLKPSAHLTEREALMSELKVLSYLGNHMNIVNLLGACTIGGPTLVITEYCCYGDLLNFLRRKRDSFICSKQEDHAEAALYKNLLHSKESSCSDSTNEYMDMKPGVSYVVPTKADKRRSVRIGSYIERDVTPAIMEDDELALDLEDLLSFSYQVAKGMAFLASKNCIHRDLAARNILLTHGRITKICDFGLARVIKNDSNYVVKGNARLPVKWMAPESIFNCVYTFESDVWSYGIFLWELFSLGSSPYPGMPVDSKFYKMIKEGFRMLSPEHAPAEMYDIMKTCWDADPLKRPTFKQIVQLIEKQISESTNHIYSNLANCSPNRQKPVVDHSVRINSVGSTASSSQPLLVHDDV", "conditions": "read-out: % control"}, "KIT(V559D,T670I)": {"biological_target": "T20, KIT(V559D,T670I) (Homo sapiens, UniProt P10721, T670I/V559D)", "T20 construct": "purchased DiscoveRx KINOMEscan", "T20 sequence (P10721 26-976 V559D/T670I)": "as the sequence (P10721 26-976 D816V) above, with V534D, T645I, V791D counted along it", "conditions": "read-out: % control"}, "KIT(V559D,V654A)": {"biological_target": "T21, KIT(V559D,V654A) (Homo sapiens, UniProt P10721, V559D/V654A)", "T21 construct": "purchased DiscoveRx KINOMEscan", "T21 sequence (P10721 26-976 V559D/V654A)": "as the sequence (P10721 26-976 D816V) above, with V534D, V629A, V791D counted along it", "conditions": "read-out: % control"}, "LIMK2": {"biological_target": "T22, LIMK2 (Homo sapiens, UniProt P53671)", "T22 construct": "purchased DiscoveRx KINOMEscan", "conditions": "read-out: % control"}, "MEK4": {"biological_target": "T23, MEK4 (Homo sapiens, UniProt P45985)", "T23 construct": "purchased DiscoveRx KINOMEscan", "conditions": "read-out: % control"}, "MERTK": {"biological_target": "T24, MERTK (Homo sapiens, UniProt Q12866)", "T24 construct": "purchased DiscoveRx KINOMEscan", "conditions": "read-out: % control"}, "MET(Y1235D)": {"biological_target": "T25, MET(Y1235D) (Homo sapiens, UniProt P08581, Y1235D)", "T25 construct": "purchased DiscoveRx KINOMEscan", "conditions": "read-out: % control"}, "NEK3": {"biological_target": "T26, NEK3 (Homo sapiens, UniProt P51956)", "T26 construct": "purchased DiscoveRx KINOMEscan", "conditions": "read-out: % control"}, "NIM1": {"biological_target": "T27, NIM1 (Homo sapiens, UniProt Q8IY84)", "T27 construct": "purchased DiscoveRx KINOMEscan", "conditions": "read-out: % control"}, "p38-alpha": {"biological_target": "T28, p38-alpha (Homo sapiens, UniProt Q16539)", "T28 construct": "purchased DiscoveRx KINOMEscan", "conditions": "read-out: % control"}, "PAK1": {"biological_target": "T29, PAK1 (Homo sapiens, UniProt Q13153)", "T29 construct": "purchased DiscoveRx KINOMEscan", "conditions": "read-out: % control"}, "PKNB(M.tuberculosis)": {"biological_target": "T30, PKNB(M.tuberculosis) (Mycobacterium tuberculosis, UniProt P9WI81)", "T30 construct": "purchased DiscoveRx KINOMEscan", "conditions": "read-out: % control"}, "PLK3": {"biological_target": "T31, PLK3 (Homo sapiens, UniProt Q9H4B4)", "T31 construct": "purchased DiscoveRx KINOMEscan", "conditions": "read-out: % control"}, "PRKCD": {"biological_target": "T32, PRKCD (Homo sapiens, UniProt Q05655)", "T32 construct": "purchased DiscoveRx KINOMEscan", "conditions": "read-out: % control"}, "RET": {"biological_target": "T33, RET (Homo sapiens, UniProt P07949)", "T33 construct": "purchased DiscoveRx KINOMEscan", "T33 sequence (P07949 29-1114)": "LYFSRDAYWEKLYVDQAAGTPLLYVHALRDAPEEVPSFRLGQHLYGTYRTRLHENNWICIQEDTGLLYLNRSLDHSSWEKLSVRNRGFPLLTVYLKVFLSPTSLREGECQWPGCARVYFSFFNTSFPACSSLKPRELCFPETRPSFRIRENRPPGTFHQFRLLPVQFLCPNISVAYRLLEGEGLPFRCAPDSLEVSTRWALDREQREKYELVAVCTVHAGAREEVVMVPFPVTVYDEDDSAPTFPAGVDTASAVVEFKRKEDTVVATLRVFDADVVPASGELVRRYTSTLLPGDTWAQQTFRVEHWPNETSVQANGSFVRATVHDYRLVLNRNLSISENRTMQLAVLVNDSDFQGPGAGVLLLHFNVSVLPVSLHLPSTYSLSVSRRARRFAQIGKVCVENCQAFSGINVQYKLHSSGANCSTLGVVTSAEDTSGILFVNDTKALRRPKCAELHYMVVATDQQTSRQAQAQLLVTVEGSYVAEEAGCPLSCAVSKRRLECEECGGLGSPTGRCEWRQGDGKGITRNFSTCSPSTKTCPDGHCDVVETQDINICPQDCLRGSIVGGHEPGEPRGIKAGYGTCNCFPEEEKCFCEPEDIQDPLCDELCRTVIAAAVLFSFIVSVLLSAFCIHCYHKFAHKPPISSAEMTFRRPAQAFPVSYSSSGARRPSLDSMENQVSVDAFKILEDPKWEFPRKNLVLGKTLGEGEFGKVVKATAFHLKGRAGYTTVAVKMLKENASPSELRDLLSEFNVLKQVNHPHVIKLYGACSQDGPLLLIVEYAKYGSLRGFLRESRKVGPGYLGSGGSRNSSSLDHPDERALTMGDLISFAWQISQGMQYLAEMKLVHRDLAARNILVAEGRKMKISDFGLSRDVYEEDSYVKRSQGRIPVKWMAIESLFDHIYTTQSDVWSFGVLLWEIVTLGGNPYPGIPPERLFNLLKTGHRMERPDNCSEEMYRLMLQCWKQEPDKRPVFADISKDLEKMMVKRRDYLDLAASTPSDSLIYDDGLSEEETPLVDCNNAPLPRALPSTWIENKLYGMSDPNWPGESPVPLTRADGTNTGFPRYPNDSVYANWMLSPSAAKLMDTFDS", "conditions": "read-out: % control"}, "RET(V804M)": {"biological_target": "T34, RET(V804M) (Homo sapiens, UniProt P07949, V804M)", "T34 construct": "purchased DiscoveRx KINOMEscan", "T34 sequence (P07949 29-1114 V804M)": "as the sequence (P07949 29-1114) above, with V776M counted along it", "conditions": "read-out: % control"}, "[4]": {"biological_target": "T35, RSK3(Kin.Dom.2-C-terminal) (Homo sapiens, UniProt Q15349)", "T35 construct": "RSK3(Kin.Dom.2-C-terminal); purchased DiscoveRx KINOMEscan", "T35 sequence (Q15349 389-733 limits assumed)": "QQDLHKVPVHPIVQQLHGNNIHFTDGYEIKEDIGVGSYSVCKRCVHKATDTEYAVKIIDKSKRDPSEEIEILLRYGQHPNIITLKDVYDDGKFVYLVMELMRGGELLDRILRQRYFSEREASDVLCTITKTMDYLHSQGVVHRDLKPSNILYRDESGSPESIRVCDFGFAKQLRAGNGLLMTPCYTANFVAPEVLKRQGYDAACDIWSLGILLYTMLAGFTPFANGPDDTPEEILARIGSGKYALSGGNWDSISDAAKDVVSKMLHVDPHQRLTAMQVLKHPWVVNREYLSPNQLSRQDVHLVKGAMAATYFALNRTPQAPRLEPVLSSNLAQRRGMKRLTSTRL", "conditions": "read-out: % control"}, "[5]": {"biological_target": "T36, RSK4(Kin.Dom.2-C-terminal) (Homo sapiens, UniProt Q9UK32)", "T36 construct": "RSK4(Kin.Dom.2-C-terminal); purchased DiscoveRx KINOMEscan", "conditions": "read-out: % control"}, "SRC": {"biological_target": "T37, SRC (Homo sapiens, UniProt P12931)", "T37 construct": "purchased DiscoveRx KINOMEscan", "conditions": "read-out: % control"}, "TESK1": {"biological_target": "T38, TESK1 (Homo sapiens, UniProt Q15569)", "T38 construct": "purchased DiscoveRx KINOMEscan", "T38 sequence (Q15569 whole entry)": "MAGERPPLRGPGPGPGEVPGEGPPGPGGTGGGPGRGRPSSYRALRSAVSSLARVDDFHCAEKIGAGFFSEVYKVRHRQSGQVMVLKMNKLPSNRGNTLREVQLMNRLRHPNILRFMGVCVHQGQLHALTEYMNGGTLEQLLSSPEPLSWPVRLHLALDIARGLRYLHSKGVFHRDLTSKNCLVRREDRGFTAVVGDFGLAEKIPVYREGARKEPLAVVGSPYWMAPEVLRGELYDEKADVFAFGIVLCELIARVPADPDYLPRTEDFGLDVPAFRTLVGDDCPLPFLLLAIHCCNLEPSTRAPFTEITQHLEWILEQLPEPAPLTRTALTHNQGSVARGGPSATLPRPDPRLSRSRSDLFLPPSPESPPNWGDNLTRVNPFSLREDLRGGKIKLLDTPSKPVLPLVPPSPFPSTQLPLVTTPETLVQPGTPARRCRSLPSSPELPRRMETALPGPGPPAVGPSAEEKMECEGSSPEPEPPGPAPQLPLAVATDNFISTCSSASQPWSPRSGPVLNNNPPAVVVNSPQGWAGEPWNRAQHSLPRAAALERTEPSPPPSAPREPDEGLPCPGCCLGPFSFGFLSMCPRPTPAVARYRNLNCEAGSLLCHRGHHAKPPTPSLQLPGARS", "conditions": "read-out: % control"}, "TRKC": {"biological_target": "T39, TRKC (Homo sapiens, UniProt Q16288)", "T39 construct": "purchased DiscoveRx KINOMEscan", "conditions": "read-out: % control"}, "TRPM6": {"biological_target": "T40, TRPM6 (Homo sapiens, UniProt Q9BX84)", "T40 construct": "purchased DiscoveRx KINOMEscan", "conditions": "read-out: % control"}}}
{"smiles": "C=CC(=O)N1CCC[C@@H](n2nc(-c3ccc(OCc4cccc(C)n4)c(Cl)c3)c3c(N)ncnc32)C1", "note": "[CHMFL-EGFR-26]", "values": [{"measurement": "remaining binding at 1 µM", "setting": "[1]", "value": 95, "unit": "%"}, {"measurement": "remaining binding at 1 µM", "setting": "[2]", "value": 100, "unit": "%"}, {"measurement": "remaining binding at 1 µM", "setting": "[3]", "value": 100, "unit": "%"}, {"measurement": "remaining binding at 1 µM", "setting": "BMX", "value": 27, "unit": "%"}, {"measurement": "remaining binding at 1 µM", "setting": "CDK8", "value": 92, "unit": "%"}, {"measurement": "remaining binding at 1 µM", "setting": "CDKL1", "value": 100, "unit": "%"}, {"measurement": "remaining binding at 1 µM", "setting": "CSNK1A1L", "value": 91, "unit": "%"}, {"measurement": "remaining binding at 1 µM", "setting": "DCAMKL2", "value": 95, "unit": "%"}, {"measurement": "remaining binding at 1 µM", "setting": "DDR1", "value": 85, "unit": "%"}, {"measurement": "remaining binding at 1 µM", "setting": "EPHA5", "value": 100, "unit": "%"}, {"measurement": "remaining binding at 1 µM", "setting": "EPHB2", "value": 100, "unit": "%"}, {"measurement": "remaining binding at 1 µM", "setting": "FGFR2", "value": 100, "unit": "%"}, {"measurement": "remaining binding at 1 µM", "setting": "FLT3(D835V)", "value": 70, "unit": "%"}, {"measurement": "% control", "setting": "FLT3(ITD,F691L)", "value": 100, "unit": "%"}, {"measurement": "remaining binding at 1 µM", "setting": "FLT3(K663Q)", "value": 97, "unit": "%"}, {"measurement": "remaining binding at 1 µM", "setting": "FLT3(R834Q)", "value": 100, "unit": "%"}, {"measurement": "remaining binding at 1 µM", "setting": "FLT4", "value": 99, "unit": "%"}, {"measurement": "remaining binding at 1 µM", "setting": "IKK-alpha", "value": 98, "unit": "%"}, {"measurement": "remaining binding at 1 µM", "setting": "IRAK1", "value": 100, "unit": "%"}, {"measurement": "remaining binding at 1 µM", "setting": "KIT(D816V)", "value": 100, "unit": "%"}, {"measurement": "remaining binding at 1 µM", "setting": "KIT(V559D,T670I)", "value": 100, "unit": "%"}, {"measurement": "remaining binding at 1 µM", "setting": "KIT(V559D,V654A)", "value": 89, "unit": "%"}, {"measurement": "remaining binding at 1 µM", "setting": "LIMK2", "value": 100, "unit": "%"}, {"measurement": "remaining binding at 1 µM", "setting": "MEK4", "value": 80, "unit": "%"}, {"measurement": "remaining binding at 1 µM", "setting": "MERTK", "value": 79, "unit": "%"}, {"measurement": "remaining binding at 1 µM", "setting": "MET(Y1235D)", "value": 55, "unit": "%"}, {"measurement": "remaining binding at 1 µM", "setting": "NEK3", "value": 83, "unit": "%"}, {"measurement": "remaining binding at 1 µM", "setting": "NIM1", "value": 96, "unit": "%"}, {"measurement": "remaining binding at 1 µM", "setting": "p38-alpha", "value": 86, "unit": "%"}, {"measurement": "remaining binding at 1 µM", "setting": "PAK1", "value": 59, "unit": "%"}, {"measurement": "remaining binding at 1 µM", "setting": "PKNB(M.tuberculosis)", "value": 100, "unit": "%"}, {"measurement": "remaining binding at 1 µM", "setting": "PLK3", "value": 85, "unit": "%"}, {"measurement": "remaining binding at 1 µM", "setting": "PRKCD", "value": 100, "unit": "%"}, {"measurement": "remaining binding at 1 µM", "setting": "RET", "value": 95, "unit": "%"}, {"measurement": "remaining binding at 1 µM", "setting": "RET(V804M)", "value": 93, "unit": "%"}, {"measurement": "remaining binding at 1 µM", "setting": "[4]", "value": 85, "unit": "%"}, {"measurement": "remaining binding at 1 µM", "setting": "[5]", "value": 72, "unit": "%"}, {"measurement": "remaining binding at 1 µM", "setting": "SRC", "value": 100, "unit": "%"}, {"measurement": "remaining binding at 1 µM", "setting": "TESK1", "value": 93, "unit": "%"}, {"measurement": "remaining binding at 1 µM", "setting": "TRKC", "value": 100, "unit": "%"}, {"measurement": "remaining binding at 1 µM", "setting": "TRPM6", "value": 100, "unit": "%"}]}
